The results in this text go back to patent publication US12570661B2, “Isoform-specific aldehyde dehydrogenase inhibitors” (The Board of Trustees of the Leland Stanford Junior …, priority 2020, dated 2026).

For data set [1], the system named is SW480 cells (spheroid). The experiment in a line: Matrigel spheroid growth / viability assay, SW480. Type of data set: cell-based. As to conditions: for GI50: Matrigel spheroid culture, 7 days, read-out: Spheroid SW480 GI50. Here is the method:
To prepare Matrigel-coated culture plates, 96-well and 24-well plates were placed on ice and coated with 25 μL or 300 μL, respectively, of Matrigel matrix (Corning, LDEV-free) that had been thawed overnight at 4° C. The plates were then placed in a 37° C. incubator for 30 min to allow the Matrigel to solidify. SW480 or HCT116 cells were suspended in spheroid culture medium (RPMI-1640 containing 20 ng/mL recombinant human epidermal growth factor (Abcam, ab9697), 20 ng/mL recombinant human fibroblast growth factor (BioVision, 4037), 5 μg/mL heparin (Sigma), 1× N-2 supplement (Thermo Fisher Scientific), 100 U/mL penicillin, and 100 μg/mL streptomycin) and then seeded into the 96-well and 24-well Matrigel-coated plates at densities of 1,000 or 5,000 cells/well and total well volumes of […] or 1 mL, respectively. Compounds were diluted in spheroid culture medium and added to the wells, and the spheroid were grown at 37° C. with 5% CO2 for 7 days.
To quantify spheroid growth at the 7-day endpoint, unstained spheroids were imaged with phase-contrast illumination using a Keyence BZ-X710 microscope. Some cultures were also stained with crystal violet to enable brightfield imaging. Briefly, the Matrigel spheroids cultures were treated with PBS containing 0.5% crystal violet and 5% methanol for 15 min at 37° C. and then gently washed 4×5 min with PBS. Spheroid sizes were quantified with ImageJ (Fiji) software using masks created with the default “Threshold” function and foreground/background adjustments to optimize masking fidelity. The full field of view was then selected for “Analyze Particles” analysis, providing numbered list of each spheroid and its area in the micrograph. In the few cases that two adjacent spheroids were treated as one object by the image processing software, their measurements were manually corrected using the “Freehand Selections” tool. To exclude background and debris from dead cells, spheroids with areas less than 500 μm^2 were excluded from the image analyses.
(§1) SW480 or HCT116 cells were seeded into regular or Matrigel-coated 96-well plates at a density of 1000 cells/well. The cells were cultured in the corresponding adherent or spheroid culture medium (200 μL/well) containing the designated compounds or an equivalent amount of DMSO vehicle. Each culture was maintained for 7 days, and then cell viabilities were measured using a CellTiter-Glo 3D Cell Viability Assay kit (Promega). Briefly, 100 μL of the culture medium was removed from each well and replaced with 100 μL 3D Cell Assay reagent. The cells in each well were next homogenized by vigorous pipetting, and the plate was incubated for 10 min at room temperature to stabilize the chemiluminescent signal. A 150-μL aliquot from each well was then transferred into a white opaque 96-well assay plate (flat-bottom and non-treated; Corning Costar) and luminescence intensities were measured with a Veritas microplate luminometer (Turner BioSystems).

Data set [2] addresses T1, ALDH1B1 (Homo sapiens, UniProt P30837).
T1 sequence (P30837 18-517): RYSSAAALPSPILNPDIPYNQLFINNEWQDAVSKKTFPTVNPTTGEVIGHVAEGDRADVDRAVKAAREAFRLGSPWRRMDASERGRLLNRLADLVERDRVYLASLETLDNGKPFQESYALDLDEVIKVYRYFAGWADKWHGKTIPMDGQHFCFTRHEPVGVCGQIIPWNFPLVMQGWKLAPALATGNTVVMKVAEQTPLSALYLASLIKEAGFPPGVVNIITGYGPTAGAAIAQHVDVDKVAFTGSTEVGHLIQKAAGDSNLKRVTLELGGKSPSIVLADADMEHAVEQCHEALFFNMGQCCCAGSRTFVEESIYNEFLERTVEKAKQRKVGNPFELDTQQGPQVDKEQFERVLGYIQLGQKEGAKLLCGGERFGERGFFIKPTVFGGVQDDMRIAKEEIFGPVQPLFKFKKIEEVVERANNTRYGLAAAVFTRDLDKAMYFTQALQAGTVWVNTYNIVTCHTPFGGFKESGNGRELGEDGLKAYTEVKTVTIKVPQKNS
The experiment in a line: ALDEFLUOR assay of cellular ALDH1B1 activity in ALDH1B1-transfected ALDH1A3−/− A375 cells. In kind it is cell-based. To be noted: for effect on ALDH1B1-dependent ALDEFLUOR signal (cellular ALDH1B1 activity): flow cytometry. Here is the method: ALDH1A3^−/− A375 cells were seeded into a 6-well plate at a density of 5×10^5 cells/well and cultured for 24 h. The cells were then transfected with either pCMV6-entry, pCMV6-GFP (Addgene, plasmid 11153), or pCMV-ALDH1B1. After 24 h, the media was replaced and transfection efficiencies were estimated by the EGFP-positive cells in the pCMV-GFP-transfected well. The cells were cultured for another 24 h and their ALDH activities were quantified using the ALDEFLUOR assay. Briefly, the cells were isolated from the plate with trypsin and resuspended in ALDEFLUOR assay buffer (STEMCELL Technologies) at a concentration of 4×10^5 cells/mL. Each ALDEFLUOR assay used 0.5 mL of this cell suspension, and the cells were treated with individual compounds for 15 min at 37° C. and 5% CO2. The cell suspensions were then treated with 2.5 μL ALDEFLUOR reagent and incubated for an additional 30 min at 37° C. and 5% CO2. The cells were then collected by centrifugation (450×g) for 5 min at room temperature, resuspended in 200 μL assay buffer, and analyzed with an LSR II flow cytometer (BD Biosciences) at the Stanford FACS facility.
In general terms: A flow cytometer gives signals particle by particle.

Data set [3] concerns SW480 cells (adherent). The experiment in a line: Cell viability assay, adherent SW480 cultures. In kind it is cell-based, human. To be noted: adherent culture, 7 days. Here is the method: as §1
The target in data set [4] is T1, ALDH1B1. Kind of data set: ALDH1B1 enzyme kinetics assay (NADH fluorescence, acetaldehyde substrate). To be noted: for IC50: 1 μg/mL enzyme, 1 mM acetaldehyde, 1 mM NAD+, read-out: ALDH1B1(in vitro) IC50; for ALDH1B1 inhibition / isoform selectivity (in words): enzyme kinetics assays against ALDH isoforms. In kind it is biochemical. Also noted: made in house; host or cells: E. coli BL21 (optionally co-expressed with GroEL/GroES). Here is the method:
Cloning, expression, and purification of human recombinant ALDH1A1, ALDH1A3, ALDH2, ALDH3A1, ALDH3A2, ALDH4A1, ALDH5A1 and ALDH7A1 isozymes were conducted as described previously (Chen, C. H. et al. (2015) Proc. Natl. Acad. Sci. U.S.A. 112, 3074-3079). Human ALDH1A2 (Origene, SC109995) and ALDH1B1 (T. Hurley, Indiana University) plasmids were cloned into the pET-15b expression vector (Novagen, 69661-3) containing an N-terminal hexahistidine tag. The mitochondria-targeting sequence of ALDH1B1 was also removed. For protein expression without chaperones, the pET-15b based plasmids were transformed into competent BL21 E. coli cells, which were subsequently grown in 1 L of Luria-Bertani medium containing 100 μg/mL ampicillin at 37° C. Once the OD600 value reached 0.6, the culture was transferred to 16° C. and 0.5 mM isopropyl β-d-1-thiogalactopyranoside was introduced to induce protein expression overnight. The bacteria were then pelleted by centrifugation (3000×g, 4° C. for 30 rain) and harvested. 40 mL BugBuster Master Mix buffer (MilliporeSigrna) containing a protease inhibitor cocktail (cOmplete; Roche) was added, and the cells were lysed by mechanically rolling the suspension at room temperature for 25 min. The lysate was centrifuged (16000×g, 4° C. for 30 min), and the soluble fraction was collected and mixed with 2 mL of Ni-NTA Superflow resin (Qiagen). After the mixture was avowed to rock at 4° C. for 1 h, it was used to create a 10-mL gravity column, which was sequentially treated with 40 mL of wash buffer 1 (20 mM sodium phosphate, 500 mM NaCl, 1 mM DTT, 20 mM imidazole, 5% glycerol, pH 7.4) and 25 mL of wash buffer 2 (20 mM sodium phosphate, 500 mM NaCl, 1 mM DTT, 40 mM imidazole, 5% glycerol, pH 7.4). The hexahistidine-tagged protein was then recovered by treated the column with 5 mL elution buffer (20 mM sodium phosphate, 500 mM NaCl, 1 mM DTT, 400 mM imidazole, 5% glycerol, pH 7.4) and collecting 500-μL fractions. The protein concentration for each fraction was measured (500 μL elution volume was collected as one fraction and was immediately mixed with 500 μL glycerol. The protein concentration for each fraction was measured (600 nm Protein Assay Reagent; Thermo Fisher Scientific), and protein-containing fractions were diluted with an equal volume of glycerol and stored at −80° C. Samples from each step were also collected for SDS-PAGE gel analysis. For ALDH1B1 protein co-expression with chaperones, pET-15b-ALDH1B1 and GroEL/GroES (Addgene, plasmid pBB541) plasmids were co-transformed into competent BL21 E. coli cells, which were subsequently grown in 1 L of Luria-Bertani medium containing 100 μg/mL ampicillin and 50 μg/mL spectinomycin at 37° C. The hexahistidine-tagged ALDH1B1 protein was then expressed and purified as described above.
To evaluate compound activities against ALDH isoforms, reaction mixtures consisting of enzyme assay buffer (100 mM sodium phosphate, 1 mM MgCl2, pH 8.0) and 0.1% DMSO, 1 mM β-mercaptoethanol, 1 mM NAD^+, and the bacterially expressed protein were prepared in white opaque 96-well assay plates (100 μL/well, flat-bottom and non-treated; Corning Costar). 5 μg/mL ALDH enzyme was used for single-dose (1, 10, 50 μM) compound test, and 1 μg/mL ALDH enzyme was used for IC50s determination. Acetaldehyde was then added to each well to achieve an initial substrate concentration of 1 mM, and the resulting enzymatic activity was measured based on NADH fluorescence. The fluorescence signal was read over the course of 10 min on a SpectraMax M2e microplate reader (340-nm excitation and 460-nm emission; Molecular Devices) operated by SoftMax Pro software. Compound activities were normalized to a DMSO control, and dose-response inhibition curves were fitted with four-parameter non-linear regression using Prism software. […]

Data set [5] can be described thus: HEK-293T cytotoxicity (cell viability) assay. Type of data set: cell-based. To be noted: human, HEK-293T cells; adherent HEK-293T, 4-5 days, CellTiter-Glo; read-out: HEK293T GI50. Here is the method:
HEK-293T cells were seeded into a 96-well plate at a density of 5×10^3 cells/well and treated with varying concentrations of selected compounds or an equivalent amount of DMSO vehicle. The cells were cultured for 4-5 days without a media change, and after the DMSO-treated cells approached 100% confluence, the cell viabilities were measured using a CellTiter-Glo 3D Cell Viability Assay kit (Promega) and a Veritas microplate luminometer (Turner BioSystems) as described above.
Background: In ATP-based viability assays light output follows the ATP content of the culture.

“Also recorded” adds a separate entry of the source. Where two headings read alike, the source gives them in different places.

On to `COc1ccccc1-c1ccc(C2=CN(c3ccccc3OC)C3=NCCCCN23)cc1` [Compound 72], for which, in data set [1] (combination with 5-FU), the “efficacy on SW480 spheroid growth in combination with 5-FU” value is listed as “closely matched the product of their individual activities”. Besides, in data set [2], the “effect on ALDH1B1-dependent ALDEFLUOR signal (cellular ALDH1B1 activity)” value (“effect” below) is “inhibit cellular ALDH1B1 activity”.

For `CCN(CC)c1ccc(C=O)cc1` [DEAB, N-diethylaminobenzaldehyde, reference compound], in data set [2], the “effect” value is given as “inhibited; also recorded: abrogated”.

As to `CCOc1ccc(C2=CN(c3ccc(-c4ccccc4OC)cc3)C3=NCCCCN23)c(OC)c1` [Guanidine 64], the GI50 in data set [1] (Homo sapiens, SW480, 168 h) was 1100 nM; in data set [3] (Homo sapiens, SW480, 168 h), 1300 nM. In data set [4], the IC50 was 100 nM.

As for `CCOc1ccc(C2=CN(c3ccc(-c4ccccc4OC)cc3)C3=NCCCN23)c(OC)c1` [Guanidine 65], the GI50 was determined as 1600 nM in data set [1] (Homo sapiens, SW480, 168 h) and 2900 nM in data set [3] (Homo sapiens, SW480, 168 h). Moreover, in data set [4], the IC50 came out at 130 nM.

As to `COc1ccccc1C1=CN(c2ccc(-c3ccccc3)cc2)C2=NCCCN12` [Guanidine 66], the “effect” value in data set [2] is “inhibits cellular ALDH1B1 activity”. Further, in data set [4], the “ALDH1B1 inhibition / isoform selectivity (in words)” value was “ALDH1B1-selective inhibitors”.

As to `Br.COc1ccccc1C1=CN(c2ccc(-c3ccccc3)cc2)C2=NCCCCN12` [Guanidine 68], the “ALDH1B1 inhibition / isoform selectivity (in words)” value in data set [4] is “ALDH1B1-selective inhibitors”.

Take `COc1ccccc1N1C=C(c2ccc(-c3ccccc3)cc2)N2CC(C)(C)CN=C21` [HPI-279]: the IC50 was 110 nM in data set [2] (ALDEFLUOR, ALDH1B1-overexpressing ALDH1A3−/− A375 cells, read-out: ALDH1B1(in cellulo) IC50) and 82 nM in data set [4].

Regarding `COc1ccccc1-n1cc(-c2ccc(-c3ccncc3)cc2)[n+]2c1CCCCC2.[Br-]` [Imidazolium 13], in data set [4] (dose-response, FIG. 15 panel d), the “potency against ALDH1B1 relative to imidazolium 2 (and 8)” value is listed as “approximately 2 fold”. In addition, the “ALDH1B1 inhibition / isoform selectivity (in words)” value in data set [4] is recorded as “ALDH1B1-specific inhibitors; also recorded: enhanced specificity for ALDH1B1 in comparison to imidazolium 2”.

For the molecule `COc1ccccc1C1=CN(c2ccc(-c3ccccc3)cc2)C2=NCCCN12` [STL5-T-0001], the GI50 turned out to be 1500 nM in data set [1] and 1900 nM in data set [3]. Further, in data set [4], the IC50 came to 98 nM.

With `COc1cc(Cl)ccc1C1=CN(c2ccc(-c3ccccc3)cc2)C2=NCCCCN12` [STL5-T-0025], the GI50 in data set [5] came to 5200 nM. Also, the IC50 in data set [4] was 42 nM.

Regarding `CCc1ccccc1C1=CN(c2ccc(-c3ccccc3)cc2)C2=NCCCCN12` [STL5-T-0027], the GI50 in data set [5] turned out to be 4300 nM. Besides, the IC50 in data set [4] is 44 nM.

`COc1cc(Cl)ccc1C1=CN(c2ccc(-c3ccccc3OC)cc2)C2=NCCCN12` [STL5-T-0057]: the GI50 in data set [1] (Homo sapiens, SW480, 168 h) came out at 440 nM; in data set [3] (Homo sapiens, SW480, 168 h), 2700 nM; in data set [5], 1700 nM. The IC50 in data set [4] was 30 nM.

As to `CCc1cc(Cl)ccc1C1=CN(c2ccc(-c3ccccc3)cc2)C2=NCCCN12` [STL8-T-0002], in data set [5], the GI50 was 1500 nM. Also, the IC50 in data set [4] amounted to 52 nM.

As to `CCc1cc(Cl)ccc1C1=CN(c2ccc(-c3ccccc3CC)cc2)C2=NCCCN12` [STL8-T-0003], the concentration for 50% growth inhibition (GI50) in data set [5] was found to be 1300 nM. Further, the IC50 in data set [4] came out at 74 nM.

For orientation: GI50 means the concentration at which growth is held to half of that of the control. As usually defined, the IC50 is the point on the concentration scale where inhibition reaches its midpoint.
